Test results taken from the NIST ThermoML archive (doi:10.1016/j.fluid.2008.09.004).
± gives the expanded uncertainty stated by the source.

Assays:
[1] = molar heat capacity at constant pressure; settings: 101.33 kPa, Liquid, Small sample (50 mg) DSC
[2] = 101.33 kPa, Liquid; for mass density: Vibrating tube method; for speed of sound: Sing-around technique in a fixed-path interferometer
[3] = excess molar enthalpy (molar enthalpy of mixing); xn = mol fraction of the nth substance listed; settings: 303.15 K, 101 kPa, Liquid, Calvet calorimetry

Row | Structure (SMILES) | molar heat capacity at constant pressure ([1]; 293.15 K) [J/K/mol] | molar heat capacity at constant pressure ([1]; 298.15 K) [J/K/mol] | molar heat capacity at constant pressure ([1]; 303.15 K) [J/K/mol] | molar heat capacity at constant pressure ([1]; 308.15 K) [J/K/mol] | molar heat capacity at constant pressure ([1]; 313.15 K) [J/K/mol] | molar heat capacity at constant pressure ([1]; 318.15 K) [J/K/mol] | mass density ([2]; 293.15 K) [kg/m3] | mass density ([2]; 298.15 K) [kg/m3] | mass density ([2]; 303.15 K) [kg/m3] | mass density ([2]; 308.15 K) [kg/m3] | mass density ([2]; 313.15 K) [kg/m3] | mass density ([2]; 318.15 K) [kg/m3] | speed of sound ([2]; 293.15 K) [m/s] | speed of sound ([2]; 298.15 K) [m/s] | speed of sound ([2]; 303.15 K) [m/s] | speed of sound ([2]; 308.15 K) [m/s] | speed of sound ([2]; 313.15 K) [m/s] | speed of sound ([2]; 318.15 K) [m/s] | other results
1 | CCOS(=O)(=O)[O-].CCn1cc[n+](C)c1 [1-ethyl-3-methylimidazolium ethyl sulfate] | 392.2 ± 6.1 | 394.4 ± 6.1 | 396.8 ± 6.1 | 399.3 ± 6.2 | 402 ± 6.2 | 404.9 ± 6.3 | 1240.6 ± 0.4 | 1237.2 ± 0.4 | 1233.8 ± 0.4 | 1230.4 ± 0.4 | 1227 ± 0.4 | 1223.7 ± 0.4 | – | – | – | – | – | – | –
2 | CCCCn1cc[n+](C)c1.COS(=O)(=O)[O-] [1-butyl-3-methylimidazolium methyl sulfate] | 413.7 ± 6.4 | 416.2 ± 6.4 | 418.5 ± 6.5 | 420.9 ± 6.5 | 423.3 ± 6.6 | 425.6 ± 6.6 | 1210.7 ± 0.4 | 1207.4 ± 0.4 | 1204.1 ± 0.4 | 1200.8 ± 0.4 | 1197.5 ± 0.4 | 1194.2 ± 0.4 | – | – | – | – | – | – | –
3 | CCCCn1cc[n+](C)c1.F[B-](F)(F)F [1-butyl-3-methylimidazolium tetrafluoroborate] | 359.8 ± 5.6 | 363.1 ± 5.6 | 366.1 ± 5.7 | 368.7 ± 5.7 | 371 ± 5.7 | 372.9 ± 5.8 | 1207.6 ± 0.4 | 1204.1 ± 0.4 | 1200.5 ± 0.4 | 1197 ± 0.4 | 1193.4 ± 0.4 | 1189.9 ± 0.4 | – | – | – | – | – | – | –
4 | CCCCn1cc[n+](C)c1.O=S(=O)([O-])C(F)(F)F [1-butyl-3-methylimidazolium trifluoromethanesulfonate] | 421.6 ± 6.5 | 424.1 ± 6.6 | 426.7 ± 6.6 | 429.5 ± 6.7 | 432.4 ± 6.7 | 435.5 ± 6.7 | 1301.6 ± 0.5 | 1297.6 ± 0.5 | 1293.7 ± 0.5 | 1289.7 ± 0.5 | 1285.8 ± 0.5 | 1281.9 ± 0.5 | 1403.4 ± 1.3 | 1392.1 ± 1.3 | 1380.9 ± 1.3 | 1369.8 ± 1.3 | 1358.8 ± 1.3 | 1348.1 ± 1.3 | –
5 | CCCCCCn1cc[n+](C)c1.F[B-](F)(F)F [1-hexyl-3-methylimidazolium tetrafluoroborate] | 425.1 ± 6.6 | 427.8 ± 6.6 | 430.4 ± 6.7 | 433 ± 6.7 | 435.5 ± 6.7 | 438.1 ± 6.8 | 1148.8 ± 0.4 | 1145.3 ± 0.4 | 1141.8 ± 0.4 | 1138.4 ± 0.4 | 1135 ± 0.4 | 1131.6 ± 0.4 | 1532.7 ± 1.4 | 1519.5 ± 1.4 | 1506.9 ± 1.4 | 1494.5 ± 1.4 | 1482.3 ± 1.4 | 1470.5 ± 1.4 | –
6 | CCn1cc[n+](C)c1.O=S(=O)([O-])C(F)(F)F [1-ethyl-3-methylimidazolium trifluoromethanesulfonate] | 361.1 ± 5.6 | 363.2 ± 5.6 | 365.3 ± 5.7 | 367.4 ± 5.7 | 369.6 ± 5.7 | 371.8 ± 5.8 | 1389.5 ± 0.6 | 1385.3 ± 0.6 | 1381.1 ± 0.6 | 1376.9 ± 0.6 | 1372.7 ± 0.6 | 1368.6 ± 0.6 | – | – | – | – | – | – | –
7 | CCCC[n+]1cccc(C)c1.F[B-](F)(F)F [1-butyl-3-methylpyridinium tetrafluoroborate] + CCO | – | – | – | – | – | – | – | – | – | – | – | – | – | – | – | – | – | – | excess molar enthalpy ([3]; x1 = 0.0306): 0.132 ± 0.0108 kcal/mol; excess molar enthalpy ([3]; x1 = 0.1031): 0.324 ± 0.0263 kcal/mol; excess molar enthalpy ([3]; x1 = 0.1976): 0.483 ± 0.0382 kcal/mol; excess molar enthalpy ([3]; x1 = 0.3036): 0.588 ± 0.0478 kcal/mol; excess molar enthalpy ([3]; x1 = 0.3966): 0.621 ± 0.0502 kcal/mol; excess molar enthalpy ([3]; x1 = 0.5083): 0.596 ± 0.0478 kcal/mol; excess molar enthalpy ([3]; x1 = 0.6001): 0.535 ± 0.043 kcal/mol; excess molar enthalpy ([3]; x1 = 0.692): 0.45 ± 0.0359 kcal/mol; excess molar enthalpy ([3]; x1 = 0.8061): 0.301 ± 0.0239 kcal/mol; excess molar enthalpy ([3]; x1 = 0.8847): 0.187 ± 0.0151 kcal/mol
8 | CCCC[n+]1cccc(C)c1.F[B-](F)(F)F [1-butyl-3-methylpyridinium tetrafluoroborate] | – | – | – | – | – | – | – | – | – | – | – | – | 1599.8 ± 1.4 | 1587 ± 1.4 | 1574.8 ± 1.4 | 1562.6 ± 1.4 | 1550.7 ± 1.4 | 1538.9 ± 1.4 | –
9 | CCO [ethanol] | 111.3 ± 1.7 | 113.3 ± 1.8 | 115.3 ± 1.8 | 117.5 ± 1.8 | 119.7 ± 1.9 | 122.1 ± 1.9 | 789.6 ± 0.2 | 785.3 ± 0.2 | 781 ± 0.2 | 776.7 ± 0.2 | 772.3 ± 0.2 | 767.8 ± 0.2 | 1159.5 ± 0.8 | 1142.5 ± 0.8 | 1125.5 ± 0.8 | 1108.6 ± 0.8 | 1091.8 ± 0.8 | 1075.1 ± 0.7 | –
